In US9708314B2, “Heterocyclic amide compound” (NISSAN CHEMICAL INDUSTRIES, LTD., priority 2013, dated 2017):

Experiments:
Assay type in all cases: in vivo
Zea mays = assay: Test Example 4: effect on crop by application to foliage (diluvial soil, plastic box); conditions: for b (Zea mays) effect on crop: application to foliage, application herbicide amount 320 g/ha; for b: Application herbicide amount 320 g/ha, effect on crop
Summary of the method: (§1)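 Seeds sown in sterilized diluvial soil, covered ~1.5 cm, grown 14 days in greenhouse at 25° C. to 30° C. Emulsion formulation diluted in water to set rate (g/ha) and sprayed onto stems and leaves. Effect scored visually 3 weeks later on 0–5 scale (5 = ≥90% herbicidal ratio, 0 = ≤5%).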

Leptochloa chinensis = assay: Test Example 3: herbicidal effect by application to foliage (Wagner pot, water depth 0.1-0.5 cm); conditions: Nineteenth Table; for D (herbicidal effect grade): application to foliage
Summary of the method: (§2)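 Rice-field weeds and directly sown rice were grown 14 days in flooded alluvial soil (water depth 0.1–0.5 cm) at 25–30 °C in a greenhouse. An emulsion formulation diluted to the stated g/ha rate was sprayed onto stems and leaves. Effects were scored on a 0–5 scale (herbicidal ratio bands) three weeks after treatment.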

Cyperus difformis = assay: as above; conditions: Nineteenth Table; for E (herbicidal effect grade): application to foliage
Summary of the method: as §2

[1] = test system: Echinochloa crus-galli var. crus-galli; assay: as above; conditions: Nineteenth Table; for H (herbicidal effect grade): application to foliage
Summary of the method: as §2

Stellaria media = assay: Test Example 4: herbicidal effect by application to foliage (diluvial soil, plastic box); conditions: application to foliage; for P (Stellaria media) herbicidal effect: application herbicide amount 320 g/ha
Summary of the method: as §1

Amaranthus retroflexus = assay: as above; conditions: application to foliage; for N (Amaranthus retroflexus) herbicidal effect: application herbicide amount 320 g/ha
Summary of the method: as §1

[2] = application herbicide amount 320 g/ha
[3] = application herbicide amount 400 g/ha
[4] = application herbicide amount 141 g/ha

Cc1nnc(NC(=O)c2ccc(C(F)(F)F)n3cnnc23)o1 [1-001]
b (Zea mays) effect on crop (Zea mays): 0 (Herbicidal ratio of 5% or less (almost no effect))
D (Leptochloa chinensis) herbicidal ratio grade (Leptochloa chinensis; [2]): 5 (Herbicidal ratio of 90% or more (almost completely withered))
E (Cyperus difformis) herbicidal ratio grade (Cyperus difformis; [2]): 4 (Herbicidal ratio of 70% or more and less than 90%)
H (Echinochloa crus-galli var. crus-galli) herbicidal ratio grade [1, 2]: 5 (Herbicidal ratio of 90% or more (almost completely withered))
P (Stellaria media) herbicidal effect (Stellaria media): 4 (Herbicidal ratio of 70% or more and less than 90%)
N (Amaranthus retroflexus) herbicidal effect (Amaranthus retroflexus): 3 (Herbicidal ratio of 40% or more and less than 70%)

Cc1nnc(NC(=O)c2ccc(C(F)(F)F)n3c(C)nnc23)o1 [1-002]
b (Zea mays) effect on crop (Zea mays): 0 (Herbicidal ratio of 5% or less (almost no effect))
D (Leptochloa chinensis) herbicidal ratio grade (Leptochloa chinensis; [3]): 4 (Herbicidal ratio of 70% or more and less than 90%)
H (Echinochloa crus-galli var. crus-galli) herbicidal ratio grade [1, 3]: 4 (Herbicidal ratio of 70% or more and less than 90%)
P (Stellaria media) herbicidal effect (Stellaria media): 5 (Herbicidal ratio of 90% or more (almost completely withered))
N (Amaranthus retroflexus) herbicidal effect (Amaranthus retroflexus): 3 (Herbicidal ratio of 40% or more and less than 70%)

CCc1nnc(NC(=O)c2ccc(C(F)(F)F)n3c(C(C)C)nnc23)o1 [1-005]
b (Zea mays) effect on crop (Zea mays): 0 (Herbicidal ratio of 5% or less (almost no effect))
D (Leptochloa chinensis) herbicidal ratio grade (Leptochloa chinensis; [3]): 5 (Herbicidal ratio of 90% or more (almost completely withered))
E (Cyperus difformis) herbicidal ratio grade (Cyperus difformis; [3]): 5 (Herbicidal ratio of 90% or more (almost completely withered))
H (Echinochloa crus-galli var. crus-galli) herbicidal ratio grade [1, 3]: 2 (Herbicidal ratio of 20% or more and less than 40%)
P (Stellaria media) herbicidal effect (Stellaria media): 1 (Herbicidal ratio of 5% or more and less than 20%)
N (Amaranthus retroflexus) herbicidal effect (Amaranthus retroflexus): 3 (Herbicidal ratio of 40% or more and less than 70%)

Cc1nnc(NC(=O)c2ccc(C(F)(F)F)n3c(C4CC4)nnc23)o1 [1-010]
b (Zea mays) effect on crop (Zea mays): 0 (Herbicidal ratio of 5% or less (almost no effect))
D (Leptochloa chinensis) herbicidal ratio grade (Leptochloa chinensis; [3]): 5 (Herbicidal ratio of 90% or more (almost completely withered))
E (Cyperus difformis) herbicidal ratio grade (Cyperus difformis; [3]): 4 (Herbicidal ratio of 70% or more and less than 90%)
H (Echinochloa crus-galli var. crus-galli) herbicidal ratio grade [1, 3]: 5 (Herbicidal ratio of 90% or more (almost completely withered))
P (Stellaria media) herbicidal effect (Stellaria media): 5 (Herbicidal ratio of 90% or more (almost completely withered))
N (Amaranthus retroflexus) herbicidal effect (Amaranthus retroflexus): 5 (Herbicidal ratio of 90% or more (almost completely withered))

Cc1nnc(NC(=O)c2ccc(C(F)(F)F)n3c(-c4ccccc4)nnc23)o1 [1-012]
b (Zea mays) effect on crop (Zea mays): 0 (Herbicidal ratio of 5% or less (almost no effect))
D (Leptochloa chinensis) herbicidal ratio grade (Leptochloa chinensis; [3]): 5 (Herbicidal ratio of 90% or more (almost completely withered))
H (Echinochloa crus-galli var. crus-galli) herbicidal ratio grade [1, 3]: 3 (Herbicidal ratio of 40% or more and less than 70%)
P (Stellaria media) herbicidal effect (Stellaria media): 4 (Herbicidal ratio of 70% or more and less than 90%)
N (Amaranthus retroflexus) herbicidal effect (Amaranthus retroflexus): 3 (Herbicidal ratio of 40% or more and less than 70%)

CCOC(=O)Cc1nnc2c(C(=O)Nc3nnc(C)o3)ccc(C(F)(F)F)n12 [1-042]
b (Zea mays) effect on crop (Zea mays): 0 (Herbicidal ratio of 5% or less (almost no effect))
E (Cyperus difformis) herbicidal ratio grade (Cyperus difformis; [2]): 4 (Herbicidal ratio of 70% or more and less than 90%)
H (Echinochloa crus-galli var. crus-galli) herbicidal ratio grade [1, 2]: 5 (Herbicidal ratio of 90% or more (almost completely withered))
P (Stellaria media) herbicidal effect (Stellaria media): 4 (Herbicidal ratio of 70% or more and less than 90%)
N (Amaranthus retroflexus) herbicidal effect (Amaranthus retroflexus): 4 (Herbicidal ratio of 70% or more and less than 90%)

Cc1nnc(NC(=O)c2ccc(C(F)(F)F)n3c(CCS(C)(=O)=O)nnc23)o1 [1-085]
b (Zea mays): 3 (Herbicidal ratio of 40% or more and less than 70%)
D (herbicidal effect grade) (Leptochloa chinensis; [2]): 5 (Herbicidal ratio of 90% or more (almost completely withered))
E (herbicidal effect grade) (Cyperus difformis; [2]): 5 (Herbicidal ratio of 90% or more (almost completely withered))
H (herbicidal effect grade) [1, 2]: 5 (Herbicidal ratio of 90% or more (almost completely withered))

Cc1nnc(NC(=O)c2ccc(C(F)(F)F)n3c(N(C)c4ccccc4)nnc23)o1 [1-086]
b (Zea mays): 1 (Herbicidal ratio of 5% or more and less than 20%)
D (herbicidal effect grade) (Leptochloa chinensis; [2]): 5 (Herbicidal ratio of 90% or more (almost completely withered))
E (herbicidal effect grade) (Cyperus difformis; [2]): 5 (Herbicidal ratio of 90% or more (almost completely withered))
H (herbicidal effect grade) [1, 2]: 5 (Herbicidal ratio of 90% or more (almost completely withered))

CCCSc1nnc2c(C(=O)Nc3nnc(C)o3)ccc(C(F)(F)F)n12 [1-087]
b (Zea mays): 0 (Herbicidal ratio of 5% or less (almost no effect))
D (herbicidal effect grade) (Leptochloa chinensis; [2]): 5 (Herbicidal ratio of 90% or more (almost completely withered))
E (herbicidal effect grade) (Cyperus difformis; [2]): 5 (Herbicidal ratio of 90% or more (almost completely withered))
H (herbicidal effect grade) [1, 2]: 5 (Herbicidal ratio of 90% or more (almost completely withered))

Cc1nnc(NC(=O)c2ccc(C(F)(F)F)n3c(NC(C)C)nnc23)o1 [1-090]
b (Zea mays): 0 (Herbicidal ratio of 5% or less (almost no effect))
D (herbicidal effect grade) (Leptochloa chinensis; [2]): 5 (Herbicidal ratio of 90% or more (almost completely withered))
E (herbicidal effect grade) (Cyperus difformis; [2]): 5 (Herbicidal ratio of 90% or more (almost completely withered))
H (herbicidal effect grade) [1, 2]: 5 (Herbicidal ratio of 90% or more (almost completely withered))

CC(C)Sc1nnc2c(C(=O)Nc3nnco3)ccc(C(F)(F)F)n12 [1-091]
b (Zea mays): 0 (Herbicidal ratio of 5% or less (almost no effect))
D (herbicidal effect grade) (Leptochloa chinensis; [2]): 5 (Herbicidal ratio of 90% or more (almost completely withered))
E (herbicidal effect grade) (Cyperus difformis; [2]): 5 (Herbicidal ratio of 90% or more (almost completely withered))
H (herbicidal effect grade) [1, 2]: 5 (Herbicidal ratio of 90% or more (almost completely withered))

CCC[S+]([O-])c1nnc2c(C(=O)Nc3nnc(C)o3)ccc(C(F)(F)F)n12 (centres unmarked) [1-092]
b (Zea mays): 5 (Herbicidal ratio of 90% or more (almost completely withered))
D (herbicidal effect grade) (Leptochloa chinensis; [2]): 5 (Herbicidal ratio of 90% or more (almost completely withered))
E (herbicidal effect grade) (Cyperus difformis; [2]): 5 (Herbicidal ratio of 90% or more (almost completely withered))
H (herbicidal effect grade) [1, 2]: 5 (Herbicidal ratio of 90% or more (almost completely withered))

Cc1nnc(NC(=O)c2ccc(C(F)(F)F)n3c(SCC(C)C)nnc23)o1 [1-093]
b (Zea mays): 0 (Herbicidal ratio of 5% or less (almost no effect))
D (herbicidal effect grade) (Leptochloa chinensis; [2]): 5 (Herbicidal ratio of 90% or more (almost completely withered))
E (herbicidal effect grade) (Cyperus difformis; [2]): 4 (Herbicidal ratio of 70% or more and less than 90%)
H (herbicidal effect grade) [1, 2]: 4 (Herbicidal ratio of 70% or more and less than 90%)

CCC(C)Sc1nnc2c(C(=O)Nc3nnc(C)o3)ccc(C(F)(F)F)n12 (centres unmarked) [1-094]
b (Zea mays): 0 (Herbicidal ratio of 5% or less (almost no effect))
D (herbicidal effect grade) (Leptochloa chinensis; [2]): 4 (Herbicidal ratio of 70% or more and less than 90%)
E (herbicidal effect grade) (Cyperus difformis; [2]): 4 (Herbicidal ratio of 70% or more and less than 90%)
H (herbicidal effect grade) [1, 2]: 5 (Herbicidal ratio of 90% or more (almost completely withered))

Cc1nnc(NC(=O)c2ccc(C(F)(F)F)n3c(SC(C)(C)C)nnc23)o1 [1-095]
b (Zea mays): 0 (Herbicidal ratio of 5% or less (almost no effect))
D (herbicidal effect grade) (Leptochloa chinensis; [2]): 4 (Herbicidal ratio of 70% or more and less than 90%)
E (herbicidal effect grade) (Cyperus difformis; [2]): 4 (Herbicidal ratio of 70% or more and less than 90%)
H (herbicidal effect grade) [1, 2]: 4 (Herbicidal ratio of 70% or more and less than 90%)

Cc1nnc(NC(=O)c2ccc(C(F)(F)F)n3c(N4CCOCC4)nnc23)o1 [1-096]
b (Zea mays): 4 (Herbicidal ratio of 70% or more and less than 90%)
D (herbicidal effect grade) (Leptochloa chinensis; [2]): 5 (Herbicidal ratio of 90% or more (almost completely withered))
E (herbicidal effect grade) (Cyperus difformis; [2]): 4 (Herbicidal ratio of 70% or more and less than 90%)
H (herbicidal effect grade) [1, 2]: 5 (Herbicidal ratio of 90% or more (almost completely withered))

CC(C)c1nnc2c(C(=O)Nc3nnc(C(F)(F)F)o3)ccc(C(F)(F)F)n12 [1-100]
b (Zea mays): 0 (Herbicidal ratio of 5% or less (almost no effect))
D (herbicidal effect grade) (Leptochloa chinensis; [2]): 5 (Herbicidal ratio of 90% or more (almost completely withered))
E (herbicidal effect grade) (Cyperus difformis; [2]): 4 (Herbicidal ratio of 70% or more and less than 90%)
H (herbicidal effect grade) [1, 2]: 5 (Herbicidal ratio of 90% or more (almost completely withered))

COc1cccc(Nc2nnc3c(C(=O)Nc4nnc(C)o4)ccc(C(F)(F)F)n23)n1 [1-102]
b (Zea mays): 0 (Herbicidal ratio of 5% or less (almost no effect))
D (herbicidal effect grade) (Leptochloa chinensis; [2]): 5 (Herbicidal ratio of 90% or more (almost completely withered))
E (herbicidal effect grade) (Cyperus difformis; [2]): 4 (Herbicidal ratio of 70% or more and less than 90%)
H (herbicidal effect grade) [1, 2]: 4 (Herbicidal ratio of 70% or more and less than 90%)

CCN(C)c1nnc2c(C(=O)Nc3nnnn3C)ccc(C(F)(F)F)n12 [2-088]
D (herbicidal effect grade) (Leptochloa chinensis; [4]): 5 (Herbicidal ratio of 90% or more (almost completely withered))
E (herbicidal effect grade) (Cyperus difformis; [4]): 4 (Herbicidal ratio of 70% or more and less than 90%)
H (herbicidal effect grade) [1, 4]: 5 (Herbicidal ratio of 90% or more (almost completely withered))
herbicidal effect, P (Stellaria media) (Stellaria media; 141 g/ha): 5 (Herbicidal ratio of 90% or more (almost completely withered))
herbicidal effect, N (Amaranthus retroflexus) (Amaranthus retroflexus; 141 g/ha): 5 (Herbicidal ratio of 90% or more (almost completely withered))
